# Data from ChEMBL document CHEMBL1201861, “Genomics of Drug Sensitity in Cancer screening data, Wellcome Trust Sanger Institute”.
# Columns and labels:
# Experiment in all cases: cells
# Assay type in all cases: functional, cell-based, Homo sapiens
# CTV-1 = conditions: Homo sapiens, CTV-1;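 also: growth inhibition of the cell line, read out with a cell viability assay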
# Description: SANGER: Inhibition of human CTV-1 cell growth in a cell viability assay.
# CW-2 = conditions: Homo sapiens, CW-2;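 also: growth inhibition of CW-2 cells, read out by a cell viability assay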
# Description: SANGER: Inhibition of human CW-2 cell growth in a cell viability assay.
# D-263MG = conditions: Homo sapiens, D-263MG
# Description: SANGER: Inhibition of human D-263MG cell growth in a cell viability assay.
# D-392MG = conditions: Homo sapiens, D-392MG
# DEL = conditions: Homo sapiens, DEL;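 also: growth inhibition of the human DEL cell line, read out with a cell viability assay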
# Description: SANGER: Inhibition of human DEL cell growth in a cell viability assay.
# DMS-79 = conditions: Homo sapiens, DMS-79;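 also: growth inhibition measured with a cell viability assay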
# Description: SANGER: Inhibition of human DMS-79 cell growth in a cell viability assay.
# EKVX = conditions: Homo sapiens, EKVX;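 also: growth inhibition of human EKVX cells, read out with a cell viability assay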
# Description: SANGER: Inhibition of human EKVX cell growth in a cell viability assay.
# EW-1 = conditions: Homo sapiens, EW-1
# Description: SANGER: Inhibition of human EW-1 cell growth in a cell viability assay.
# EW-13 = conditions: Homo sapiens, EW-13;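 also: growth inhibition of EW-13 cells, read out with a cell viability assay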
# Description: SANGER: Inhibition of human EW-13 cell growth in a cell viability assay.
# EOL1 = conditions: Homo sapiens, EOL1;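 also: growth inhibition of EoL-1 cells, read out by a cell viability assay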
# Description: SANGER: Inhibition of human EoL-1-cell cell growth in a cell viability assay.
# GI-ME-N = conditions: Homo sapiens, GI-ME-N;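 also: growth inhibition of human GI-ME-N cells, read out with a cell viability assay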
# Description: SANGER: Inhibition of human GI-ME-N cell growth in a cell viability assay.
# GT3TKB = conditions: Homo sapiens, GT3TKB;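 also: growth inhibition of the cell line, read out with a cell viability assay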
# Description: SANGER: Inhibition of human GT3TKB cell growth in a cell viability assay.
# HOP-62 = conditions: Homo sapiens, HOP-62;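 also: cell growth inhibition determined with a viability assay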
# Description: SANGER: Inhibition of human HOP-62 cell growth in a cell viability assay.
# HT-144 = conditions: Homo sapiens, HT-144
# Description: SANGER: Inhibition of human HT-144 cell growth in a cell viability assay.
# IST-MES1 = conditions: Homo sapiens, IST-MES1;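 also: growth inhibition of IST-MES1 cells, measured with a cell viability assay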
# Description: SANGER: Inhibition of human IST-MES1 cell growth in a cell viability assay.
# J-RT3-T3-5 = conditions: Homo sapiens, J-RT3-T3-5;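 also: cell viability assay measuring growth inhibition of human J-RT3-T3-5 cells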
# Description: SANGER: Inhibition of human J-RT3-T3-5 cell growth in a cell viability assay.
# KG-1 = conditions: Homo sapiens, KG-1;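 also: growth inhibition of KG-1 cells, read out by a cell viability assay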
# Description: SANGER: Inhibition of human KG-1 cell growth in a cell viability assay.
# KINGS-1 = conditions: Homo sapiens, KINGS-1;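 also: cell viability assay measuring suppression of KINGS-1 cell growth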
# Description: SANGER: Inhibition of human KINGS-1 cell growth in a cell viability assay.
# KMOE-2 = conditions: Homo sapiens, KMOE-2;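 also: growth inhibition of human KMOE-2 cells, read out with a cell viability assay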
# Description: SANGER: Inhibition of human KMOE-2 cell growth in a cell viability assay.
# KURAMOCHI = conditions: Homo sapiens, KURAMOCHI;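 also: growth inhibition of KURAMOCHI cells, read out with a cell viability assay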
# Description: SANGER: Inhibition of human KURAMOCHI cell growth in a cell viability assay.
# LAMA-84 = conditions: Homo sapiens, LAMA-84;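 also: growth inhibition of LAMA-84 cells, read out with a cell viability assay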
# Description: SANGER: Inhibition of human LAMA-84 cell growth in a cell viability assay.
# LB373-MEL-D = conditions: Homo sapiens, LB373-MEL-D;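 also: growth inhibition of the cell line, read out in a cell viability assay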
# Description: SANGER: Inhibition of human LB373-MEL-D cell growth in a cell viability assay.
# LXF-289 cell line = conditions: Homo sapiens, LXF-289
# Description: SANGER: Inhibition of human LXF-289 cell growth in a cell viability assay.
# MFM-223 = conditions: Homo sapiens, MFM-223
# Description: SANGER: Inhibition of human MFM-223 cell growth in a cell viability assay.
# MHH-PREB-1 = conditions: Homo sapiens, MHH-PREB-1;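 also: cell viability assay measuring inhibition of proliferation of human MHH-PREB-1 cells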
# Description: SANGER: Inhibition of human MHH-PREB-1 cell growth in a cell viability assay.
# MLMA = conditions: Homo sapiens, MLMA;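 also: growth inhibition of MLMA cells (human), determined through a cell viability readout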
# Description: SANGER: Inhibition of human MLMA cell growth in a cell viability assay.
# MOLT-4 = conditions: Homo sapiens, MOLT-4;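 also: growth inhibition of MOLT-4 cells, determined with a cell viability readout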
# Description: SANGER: Inhibition of human MOLT-4 cell growth in a cell viability assay.
# MS-1 = conditions: Homo sapiens, MS-1
# Description: SANGER: Inhibition of human MS-1 cell growth in a cell viability assay.
# NB13 = conditions: Homo sapiens, NB13;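 also: cell viability readout measuring growth inhibition of human NB13 cells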
# Description: SANGER: Inhibition of human NB13 cell growth in a cell viability assay.
# NCI-H1355 = conditions: Homo sapiens, NCI-H1355;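 also: growth inhibition of human NCI-H1355 cells, read out by a cell viability assay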
# Description: SANGER: Inhibition of human NCI-H1355 cell growth in a cell viability assay.
# NCI-H1770 = conditions: Homo sapiens, NCI-H1770;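 also: growth inhibition of NCI-H1770 cells determined with a viability readout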
# Description: SANGER: Inhibition of human NCI-H1770 cell growth in a cell viability assay.
# OCI-AML2 = conditions: Homo sapiens, OCI-AML2;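 also: growth inhibition of OCI-AML2 cells, read out with a cell viability assay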
# Description: SANGER: Inhibition of human OCI-AML2 cell growth in a cell viability assay.
# OS-RC-2 = conditions: Homo sapiens, OS-RC-2;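 also: growth inhibition of human OS-RC-2 cells, measured by a cell viability assay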
# Description: SANGER: Inhibition of human OS-RC-2 cell growth in a cell viability assay.
# PSN1 = conditions: Homo sapiens, PSN1;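 also: suppression of growth of human PSN1 cells, read out by a cell viability assay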
# Description: SANGER: Inhibition of human PSN1 cell growth in a cell viability assay.
# QIMR-WIL = conditions: Homo sapiens, QIMR-WIL;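 also: growth inhibition of QIMR-WIL cells, read out with a cell viability assay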
# Description: SANGER: Inhibition of human QIMR-WIL cell growth in a cell viability assay.
# RKO = conditions: Homo sapiens, RKO;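 also: growth inhibition of human RKO cells, read out with a cell viability assay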
# Description: SANGER: Inhibition of human RKO cell growth in a cell viability assay.
# RPMI-8226 = conditions: Homo sapiens, RPMI-8226
# Description: SANGER: Inhibition of human RPMI-8226 cell growth in a cell viability assay.
# SCC-15 = conditions: Homo sapiens, SCC-15;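 also: growth inhibition of SCC-15 cells, read out with a cell viability assay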
# Description: SANGER: Inhibition of human SCC-15 cell growth in a cell viability assay.
# SK-LMS-1 = conditions: Homo sapiens, SK-LMS-1;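 also: growth inhibition of human SK-LMS-1 cells, read out with a cell viability assay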
# Description: SANGER: Inhibition of human SK-LMS-1 cell growth in a cell viability assay.
# SK-NEP-1 = conditions: Homo sapiens, SK-NEP-1;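 also: growth inhibition of human SK-NEP-1 cells, read out by a cell viability assay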
# Description: SANGER: Inhibition of human SK-NEP-1 cell growth in a cell viability assay.
# SW 962 = conditions: Homo sapiens, SW 962;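 also: growth inhibition of human SW962 cells, read out by a cell viability assay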
# Description: SANGER: Inhibition of human SW962 cell growth in a cell viability assay.
# A101D = conditions: Homo sapiens, A101D;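 also: growth inhibition of the cell line, measured with a viability assay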
# Description: SANGER: Inhibition of human A101D cell growth in a cell viability assay.
# BB65-RCC = conditions: Homo sapiens, BB65-RCC;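 also: growth inhibition of the cell line, measured with a cell viability assay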
# Description: SANGER: Inhibition of human BB65-RCC cell growth in a cell viability assay.
# BT-474 = conditions: Homo sapiens, BT-474
# Description: SANGER: Inhibition of human BT-474 cell growth in a cell viability assay.
# Becker = conditions: Homo sapiens, Becker;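 also: growth inhibition of Becker cells, read out with a cell viability assay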
# Description: SANGER: Inhibition of human Becker cell growth in a cell viability assay.
# TE-6 = conditions: Homo sapiens, TE-6;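 also: growth inhibition of TE-6 cells, read out with a cell viability assay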
# Description: SANGER: Inhibition of human TE-6 cell growth in a cell viability assay.
# SNU-C2B = conditions: Homo sapiens, SNU-C2B;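 also: cell viability readout used to measure compound-driven suppression of SNU-C2B cell proliferation, IC50 marking half-maximal growth inhibition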
# Description: SANGER: Inhibition of human SNU-C2B cell growth in a cell viability assay.
# SW982 = conditions: Homo sapiens, SW982;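 also: growth inhibition of SW982 cells, read out with a cell viability assay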
# Description: SANGER: Inhibition of human SW982 cell growth in a cell viability assay.
# A704 = conditions: Homo sapiens, A704;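 also: growth inhibition of human A704 cells, read out with a cell viability assay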
# Description: SANGER: Inhibition of human A704 cell growth in a cell viability assay.
structure (smiles),measurement,setting,value
COc1cc(N2CCN(C)CC2)ccc1Nc1ncc2c(n1)N(C)c1ccccc1C(=O)N2C,IC50,CTV-1,> 8 µM
same,IC50,CW-2,> 8 µM
same,IC50,D-263MG,> 8 µM
same,IC50,D-392MG,> 8 µM
same,IC50,DEL,> 8 µM
same,IC50,DMS-79,> 8 µM
same,IC50,EKVX,> 8 µM
same,IC50,EW-1,3.84 µM
same,IC50,EW-13,> 8 µM
same,IC50,EOL1,> 8 µM
same,IC50,GI-ME-N,0.889 µM
same,IC50,GT3TKB,> 8 µM
same,IC50,HOP-62,6.6 µM
same,IC50,HT-144,> 8 µM
same,IC50,IST-MES1,> 8 µM
same,IC50,J-RT3-T3-5,> 8 µM
same,IC50,KG-1,> 8 µM
same,IC50,KINGS-1,> 8 µM
same,IC50,KMOE-2,> 8 µM
same,IC50,KURAMOCHI,> 8 µM
same,IC50,LAMA-84,> 8 µM
same,IC50,LB373-MEL-D,> 8 µM
same,IC50,LXF-289 cell line,> 8 µM
same,IC50,MFM-223,> 8 µM
same,IC50,MHH-PREB-1,3.84 µM
same,IC50,MLMA,> 8 µM
same,IC50,MOLT-4,> 8 µM
same,IC50,MS-1,4.67 µM
same,IC50,NB13,> 8 µM
same,IC50,NCI-H1355,> 8 µM
same,IC50,NCI-H1770,4.74 µM
same,IC50,OCI-AML2,3.6 µM
same,IC50,OS-RC-2,> 8 µM
same,IC50,PSN1,> 8 µM
same,IC50,QIMR-WIL,6.32 µM
same,IC50,RKO,4.68 µM
same,IC50,RPMI-8226,> 8 µM
same,IC50,SCC-15,> 8 µM
same,IC50,SK-LMS-1,> 8 µM
same,IC50,SK-NEP-1,> 8 µM
same,IC50,SW 962,> 8 µM
same,IC50,A101D,7.59 µM
same,IC50,BB65-RCC,> 8 µM
same,IC50,BT-474,> 8 µM
same,IC50,Becker,7.46 µM
same,IC50,TE-6,> 8 µM
N#Cc1c(O)c2c(-c3ccc(-c4ccccc4O)cc3)csc2[nH]c1=O,IC50,CTV-1,0.073 µM
same,IC50,CW-2,> 1.02 µM
same,IC50,D-263MG,> 1.02 µM
same,IC50,D-392MG,> 1.02 µM
same,IC50,DEL,0.228 µM
same,IC50,DMS-79,> 1.02 µM
same,IC50,EKVX,> 1.02 µM
same,IC50,EW-1,> 1.02 µM
same,IC50,EW-13,> 1.02 µM
same,IC50,EOL1,0.0956 µM
same,IC50,GI-ME-N,> 1.02 µM
same,IC50,GT3TKB,> 1.02 µM
same,IC50,HOP-62,> 1.02 µM
same,IC50,HT-144,> 1.02 µM
same,IC50,IST-MES1,> 1.02 µM
same,IC50,J-RT3-T3-5,0.378 µM
same,IC50,KG-1,0.409 µM
same,IC50,KINGS-1,> 1.02 µM
same,IC50,KMOE-2,0.397 µM
same,IC50,KURAMOCHI,> 1.02 µM
same,IC50,LAMA-84,0.308 µM
same,IC50,LB373-MEL-D,> 1.02 µM
same,IC50,LXF-289 cell line,> 1.02 µM
same,IC50,MFM-223,> 1.02 µM
same,IC50,MHH-PREB-1,0.182 µM
same,IC50,MLMA,0.234 µM
same,IC50,MOLT-4,0.114 µM
same,IC50,MS-1,0.827 µM
same,IC50,NB13,> 1.02 µM
same,IC50,NCI-H1355,> 1.02 µM
same,IC50,NCI-H1770,0.109 µM
same,IC50,OCI-AML2,0.0572 µM
same,IC50,OS-RC-2,> 1.02 µM
same,IC50,PSN1,> 1.02 µM
same,IC50,QIMR-WIL,0.0364 µM
same,IC50,RKO,> 1.02 µM
same,IC50,RPMI-8226,0.246 µM
same,IC50,SCC-15,> 1.02 µM
same,IC50,SK-LMS-1,> 1.02 µM
same,IC50,SK-NEP-1,0.185 µM
same,IC50,SNU-C2B,> 1.02 µM
same,IC50,SW 962,> 1.02 µM
same,IC50,SW982,> 1.02 µM
same,IC50,A101D,> 1.02 µM
same,IC50,A704,> 1.02 µM
same,IC50,BB65-RCC,> 1.02 µM
same,IC50,BT-474,0.151 µM
same,IC50,Becker,> 1.02 µM
same,IC50,TE-6,> 1.02 µM
COc1cc2ncn(-c3cc(OCc4ccccc4S(C)(=O)=O)c(C#N)s3)c2cc1OC [GSK-319347A],IC50,CTV-1,> 5 µM
same,IC50,CW-2,> 5 µM
same,IC50,D-263MG,> 5 µM
same,IC50,D-392MG,> 5 µM
same,IC50,DEL,> 5 µM
same,IC50,DMS-79,> 5 µM
same,IC50,EKVX,> 5 µM
same,IC50,EW-1,> 5 µM
same,IC50,EW-13,> 5 µM
same,IC50,EOL1,> 5 µM
same,IC50,GI-ME-N,> 5 µM
same,IC50,GT3TKB,> 5 µM
same,IC50,HOP-62,> 5 µM
same,IC50,HT-144,> 5 µM
same,IC50,IST-MES1,> 5 µM
same,IC50,J-RT3-T3-5,> 5 µM
same,IC50,KG-1,> 5 µM
same,IC50,KINGS-1,> 5 µM
same,IC50,KMOE-2,> 5 µM
same,IC50,KURAMOCHI,> 5 µM
same,IC50,LAMA-84,> 5 µM
same,IC50,LB373-MEL-D,> 5 µM
same,IC50,LXF-289 cell line,> 5 µM
same,IC50,MFM-223,> 5 µM
same,IC50,MHH-PREB-1,> 5 µM
same,IC50,MLMA,> 5 µM
same,IC50,MOLT-4,> 5 µM
same,IC50,MS-1,> 5 µM
same,IC50,NB13,> 5 µM
same,IC50,NCI-H1355,> 5 µM
same,IC50,NCI-H1770,> 5 µM
same,IC50,OCI-AML2,> 5 µM
same,IC50,OS-RC-2,> 5 µM
same,IC50,PSN1,> 5 µM
same,IC50,QIMR-WIL,> 5 µM
same,IC50,RKO,> 5 µM
same,IC50,RPMI-8226,> 5 µM
same,IC50,SCC-15,> 5 µM
same,IC50,SK-LMS-1,> 5 µM
same,IC50,SK-NEP-1,> 5 µM
same,IC50,SW 962,> 5 µM
same,IC50,A101D,> 5 µM
same,IC50,BB65-RCC,> 5 µM
same,IC50,BT-474,> 5 µM
same,IC50,Becker,> 5 µM
same,IC50,TE-6,> 5 µM
CC[C@H](CO)Nc1nc(NCc2ccccc2)c2ncn(C(C)C)c2n1 [SELICICLIB],IC50,CTV-1,> 16 µM
same,IC50,CW-2,> 16 µM
same,IC50,D-263MG,> 16 µM
same,IC50,D-392MG,> 16 µM
same,IC50,DEL,> 16 µM
same,IC50,DMS-79,> 16 µM
same,IC50,EKVX,> 16 µM
same,IC50,EW-1,> 16 µM
same,IC50,EW-13,> 16 µM
same,IC50,EOL1,> 16 µM
same,IC50,GI-ME-N,> 16 µM
same,IC50,GT3TKB,> 16 µM
same,IC50,HOP-62,> 16 µM
same,IC50,HT-144,> 16 µM
same,IC50,IST-MES1,> 16 µM
same,IC50,J-RT3-T3-5,> 16 µM
same,IC50,KG-1,> 16 µM
same,IC50,KINGS-1,> 16 µM
same,IC50,KMOE-2,> 16 µM
same,IC50,LAMA-84,> 16 µM
same,IC50,LB373-MEL-D,> 16 µM
same,IC50,LXF-289 cell line,> 16 µM
same,IC50,MFM-223,> 16 µM
same,IC50,MHH-PREB-1,> 16 µM
same,IC50,MLMA,> 16 µM
same,IC50,MOLT-4,> 16 µM
same,IC50,MS-1,> 16 µM
same,IC50,NB13,> 16 µM
same,IC50,NCI-H1355,> 16 µM
same,IC50,NCI-H1770,> 16 µM
same,IC50,OCI-AML2,15.6 µM
same,IC50,OS-RC-2,15.8 µM
same,IC50,PSN1,> 16 µM
same,IC50,QIMR-WIL,> 16 µM
same,IC50,RKO,> 16 µM
same,IC50,RPMI-8226,> 16 µM
same,IC50,SCC-15,> 16 µM
same,IC50,SK-LMS-1,> 16 µM
same,IC50,SK-NEP-1,> 16 µM
same,IC50,SW 962,> 16 µM
same,IC50,A101D,> 16 µM
same,IC50,BB65-RCC,9.97 µM
same,IC50,BT-474,> 16 µM
same,IC50,Becker,9.46 µM
same,IC50,TE-6,> 16 µM
CS(=O)(=O)c1ccc(C(=O)Nc2ccc(Cl)c(-c3ccccn3)c2)c(Cl)c1 [VISMODEGIB],IC50,CTV-1,> 10 µM
same,IC50,CW-2,> 10 µM
same,IC50,D-263MG,> 10 µM
same,IC50,D-392MG,> 10 µM
same,IC50,DEL,> 10 µM
same,IC50,DMS-79,> 10 µM
same,IC50,EKVX,> 10 µM
same,IC50,EW-1,> 10 µM
same,IC50,EW-13,> 10 µM
same,IC50,GI-ME-N,> 10 µM
same,IC50,GT3TKB,> 10 µM
same,IC50,HOP-62,> 10 µM
same,IC50,HT-144,> 10 µM
same,IC50,IST-MES1,> 10 µM
same,IC50,J-RT3-T3-5,> 10 µM
same,IC50,KG-1,> 10 µM
same,IC50,KINGS-1,> 10 µM
same,IC50,KMOE-2,> 10 µM
same,IC50,KURAMOCHI,> 10 µM
same,IC50,LAMA-84,> 10 µM
same,IC50,LB373-MEL-D,> 10 µM
same,IC50,LXF-289 cell line,> 10 µM
same,IC50,MFM-223,> 10 µM
same,IC50,MHH-PREB-1,> 10 µM
same,IC50,MLMA,> 10 µM
same,IC50,MOLT-4,> 10 µM
same,IC50,MS-1,> 10 µM
same,IC50,NB13,> 10 µM
same,IC50,NCI-H1355,> 10 µM
same,IC50,NCI-H1770,> 10 µM
same,IC50,OCI-AML2,> 10 µM
same,IC50,OS-RC-2,> 10 µM
same,IC50,PSN1,> 10 µM
same,IC50,QIMR-WIL,> 10 µM
same,IC50,RKO,> 10 µM
same,IC50,RPMI-8226,> 10 µM
same,IC50,SCC-15,> 10 µM
same,IC50,SK-LMS-1,> 10 µM
same,IC50,SK-NEP-1,> 10 µM
same,IC50,SNU-C2B,> 10 µM
same,IC50,SW 962,> 10 µM
same,IC50,SW982,> 10 µM
same,IC50,A101D,> 10 µM
same,IC50,A704,> 10 µM
same,IC50,BB65-RCC,> 10 µM
same,IC50,BT-474,> 10 µM
same,IC50,Becker,> 10 µM
same,IC50,TE-6,> 10 µM
